Source: US20020028938A1, “Prostaglandin endoperoxide H synthase biosynthesis inhibitors” (priority 1997, published 2002)

Assays:
[1] = molecular target: T1, human amnionic whole cell cyclooxygenase-2 (WISH cells) (Homo sapiens, UniProt P35354); test: IL-1β induced PGE2 production in WISH cells; type: cell-based; settings: read-out: Wish IC50 (parenthetical value)
T1 construct: endogenous in cells; host or cells: human amnionic WISH cells, induced with IL-1beta
T1 sequence (P35354 18-604): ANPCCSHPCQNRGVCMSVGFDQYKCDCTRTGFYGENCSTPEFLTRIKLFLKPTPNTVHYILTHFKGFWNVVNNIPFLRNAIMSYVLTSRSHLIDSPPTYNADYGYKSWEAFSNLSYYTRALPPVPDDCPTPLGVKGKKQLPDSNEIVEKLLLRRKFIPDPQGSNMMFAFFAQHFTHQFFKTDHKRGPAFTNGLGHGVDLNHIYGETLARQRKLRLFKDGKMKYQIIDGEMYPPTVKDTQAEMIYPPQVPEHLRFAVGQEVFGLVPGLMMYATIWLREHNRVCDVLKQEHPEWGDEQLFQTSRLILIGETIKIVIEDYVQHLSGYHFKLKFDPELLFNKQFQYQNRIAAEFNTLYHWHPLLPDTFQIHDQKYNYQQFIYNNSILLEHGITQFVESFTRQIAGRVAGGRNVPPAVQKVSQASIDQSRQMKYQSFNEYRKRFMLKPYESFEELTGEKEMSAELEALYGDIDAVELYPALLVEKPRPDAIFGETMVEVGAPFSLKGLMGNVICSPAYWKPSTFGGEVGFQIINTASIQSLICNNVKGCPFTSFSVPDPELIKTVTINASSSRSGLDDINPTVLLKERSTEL
How it was run: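 PGE2 was quantified by enzyme immunoassay (optical density read) against standards made up in the matching medium. WISH cells at 80% confluence, washed and placed in serum-free Neuman-Tytell medium, received 5 ng/ml IL-1β plus test compound or DMSO vehicle (0.01% v/v).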

[2] = molecular target: T2, Cox-1 in Monocyte U937 cells (Homo sapiens, UniProt P23219); test: Monocyte U937 cell Cox-1 assay; type: cell-based
T2 construct: endogenous in cells; host or cells: U937 monocyte cells (ATCC)
Method: Human amnionic WISH cells were grown to 80% confluence in 48 well plates. Following removal of the growth medium and two washings with Geys Balanced Salt Solutn, 5 ng IL-1β /ml (UBI, Lake Placid, N.Y.) was added to the cells with or without test compound in DMSO (0.01% v/v) in Neuman-Tytell Serumless Medium (GIBCO, Grand Island, N.Y.). Following an 18 hour incubation to allow for the maximal induction of PGHS-2, the conditioned medium was removed and assayed for PGE2 content by EIA analysis as described above.
Monocyte U937 (ATCC, Rockville, Md.) cells were grown in a similar fashion to the WISH cells. After incubation, the conditioned medium was removed and assayed for […] by EIA analysis as described above.

[3] = molecular target: T3, recombinant human Cox-2 (r-hu Cox-2) (Homo sapiens, UniProt P35354); test: Recombinant human PGHS-2 enzyme assay (RHUCX2); type: biochemical; settings: for IC50: read-out: RHUCX2 IC50 (parenthetical value)
T3 construct: made in house; host or cells: baculovirus/Sf9 insect cells (microsomes)
T3 sequence (P35354 18-604): T1 sequence (P35354 18-604)
How it was run: (§1)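 IC50 values come from linear regression of percent inhibition, itself calculated against the mean of untreated controls. The underlying signal is PGE2, determined by EIA after a brief room-temperature reaction (2.5 minutes) terminated with acid and then base-neutralized.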

[4] = molecular target: T4, recombinant human Cox-1 (r-hu Cox1) (Homo sapiens, UniProt P23219); test: Recombinant human PGHS-1 enzyme assay (RHUCX1); type: biochemical; settings: for inhibition at 100 µM / inhibition at 10 µM: read-out: RHUCX1 % Inh. at Dose; for IC50: read-out: RHUCX1 IC50 (parenthetical value)
T4 construct: made in house; host or cells: baculovirus/Sf9 insect cells (microsomes)
How it was run: as §1

[5] = tested on: carrageenan induced paw edema; test: Carrageenan induced paw edema (CPE) in rats; type: in vivo; settings: rat; for inhibition in vivo at 10 mg/kg: 10 mpk oral, 3 hours after carrageenan, read-out: CPE % Inhib. @ 10 mpk
How it was run: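 Male Sprague-Dawley rats (170–190 g) dosed orally in PEG 400, 1 h before subplantar 0.1 ml 1% lambda carrageenan in right hindpaw. Plethysmographic paw volume at 0 and 3 h; edema as difference, % inhibition versus control mean (±SEM), Dunnett's test, ED50 by linear regression.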

[6] = tested on: air pouch prostaglandin biosynthesis (Cox-2); test: Carrageenan induced air pouch prostaglandin biosynthesis model (CAP); type: in vivo, rat; settings: for inhibition in vivo at 3 mg/kg: 4 h, 3 mpk, rat, read-out: CAP % Inhib. @ 3 mpk; for ED50: Rattus norvegicus
How it was run: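 Male Sprague Dawley rats with dorsal air pouches (20 mL air day 0, 10 mL day 3) received 0.2% lambda carrageenan in saline into the pouch on day 7. Compounds dosed at 0.1 to 10 mg/kg 30 min before carrageenan; pouch lavaged 4 h later, prostaglandins measured by EIA. Percent inhibition versus control mean; ED50 by linear regression.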

[7] = tested on: prostaglandin biosynthesis in vivo (pleural lavage eicosanoids); test: Rat carrageenan pleural inflammation (CIP) model; settings: 4 h, 10 mpk oral, read-out: CIP % Inhib. @ 10 mpk
Method: For oral administration, test compounds were suspended on the day of use in 100% polyethyleneglycol (PEG 400) with a motorized homogenizer equipped with a Teflon-coated pestle (TRI-R Instrument, Jamaica, N.Y.).
To compare the mean responses of the treatment groups, analysis of variance was applied. Percent inhibition values were determined by comparing the individual treatment mean values to the mean of the control group. Linear regression was used to estimate IC50's/ED50's in appropriate assays.
Pleural inflammation was induced in male adrenalectomized Sprague-Dawley rats following the method of Vinegar et al., Fed. Proc. 1976, 35, 2447-2456. Animals were orally dosed with experimental compounds, 30 minutes prior to the intrapleural injection of 2% lambda carrageenan (Sigma Chemical Co., St. Louis Mo.). Four hours later the animals were euthanized and the pleural cavities lavaged with ice cold saline. The lavage fluid was then added to two volumes of ice cold methanol (final methanol concentration 66%) to lyse cells and precipitate protein. Eicosanoids were determined by EIA as described above.

[8] = molecular target: T5, Human Whole Platelet Cyclooxygenase-1 (Homo sapiens, UniProt P23219); test: Human Whole Platelet Cyclooxygenase-1 assay (HWPX); type: cell-based; settings: read-out: HWPX IC50 (parenthetical value)
T5 construct: from tissue; host or cells: human blood: isolated platelets (A4) or heparinised whole blood (A9)
How it was run: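 Thromboxane production was measured with a commercial kit after stimulation of washed human platelets (ACD-anticoagulated volunteer blood) by 8.8 μM final A23187 for 10 min. Test compounds were added 10 min before stimulus; cold 6 mM EDTA terminated the reaction.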

[9] = Pharmacokinetic profile (plasma concentration, half life, AUC); type: in vivo, Rat; settings: for half-life: Rat IV (3mg/kg); for AUC / concentration at 14 day: rat; for concentration at 14 day: oral, based on 10 mg/kg dosage, read-out: 14 day plasma micromolar concentration
Human whole blood Cox-1 = molecular target: T6, Human whole blood Cox-1 (Homo sapiens, UniProt P23219); test: Human whole blood assay Cyclooxygenase-1; type: cell-based
T6 construct: from tissue; host or cells: human blood: isolated platelets (A4) or heparinised whole blood (A9)
Method: Heparin anticoagulated blood was incubated with drugs dissolved in DMSO. The samples are incubated at 37 degrees Celsius for 4.5 hours after which calcium ionophore at a final concentration of 30 μM was added and the mixture allowed to incubate for 30 minutes. The reaction was stopped with the addition of EGTA and cold methanol (50% final concentration). After 18 hours at −70 degrees Celsius, the plates were centrifuged and supernatants analyzed for TXB2.

Human whole blood Cox-2 = molecular target: T7, Human whole blood Cox-2 (Homo sapiens, UniProt P35354); test: Human whole blood assay Cyclooxygenase-2; type: cell-based
T7 construct: from tissue; host or cells: heparinised human whole blood stimulated with E. coli LPS
T7 sequence (P35354 18-604): T1 sequence (P35354 18-604)
Method: Heparin anticoagulated blood was incubated with drugs dissolved in DMSO. The samples are incubated at 37 degrees Celsius for 15 minutes. E. coli lipopolysaccaride (LPS) 5 μg/ml dded and the samples incubated for 5 hours. The reaction was stopped with the addition of EGTA and cold methanol (50% final concentration). After 18 hours at −70 degree Celsius, the plates were centrifuged and supernatants analyzed for TXB2.

T4 sequence (P23219 24-599): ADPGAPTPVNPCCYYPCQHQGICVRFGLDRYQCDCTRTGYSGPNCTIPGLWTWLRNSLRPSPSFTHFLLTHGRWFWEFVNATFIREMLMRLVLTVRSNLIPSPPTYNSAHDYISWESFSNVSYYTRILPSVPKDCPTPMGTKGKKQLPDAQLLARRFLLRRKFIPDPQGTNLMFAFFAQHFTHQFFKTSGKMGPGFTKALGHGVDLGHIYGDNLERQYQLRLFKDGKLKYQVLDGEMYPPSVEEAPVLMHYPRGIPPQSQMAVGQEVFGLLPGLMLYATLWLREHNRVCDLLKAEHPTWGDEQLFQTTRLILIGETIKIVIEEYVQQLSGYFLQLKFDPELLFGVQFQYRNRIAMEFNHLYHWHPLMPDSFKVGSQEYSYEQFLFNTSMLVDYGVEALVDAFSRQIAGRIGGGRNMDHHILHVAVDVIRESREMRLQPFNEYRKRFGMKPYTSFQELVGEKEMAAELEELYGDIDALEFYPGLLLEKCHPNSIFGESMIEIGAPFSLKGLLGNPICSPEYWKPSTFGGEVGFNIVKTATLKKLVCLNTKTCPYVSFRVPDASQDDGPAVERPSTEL
T5 sequence (P23219 24-599): as above
T2 sequence (P23219 24-599): as above
T6 sequence (P23219 24-599): as above

For `CS(=O)(=O)c1ccc(-c2cnn(Cc3ccc(F)cc3)c(=O)c2-c2ccc(F)cc2)cc1` [Example 20], the IC50 [1] was 1 nM, the inhibition at 1 µM ([2]; U-937, 1 μM, read-out: U937 % Inhib. at Dose) was 33% and the melting point was 153 to 154 °C. The inhibition at 0.01 µM ([3]; 0.01 μM, read-out: RHUCX2 % Inh. at Dose) was 9%, the inhibition at 0.1 µM ([3]; 0.1 μM, read-out: RHUCX2 % Inh. at Dose) was 86% and the inhibition at 100 µM [4] was 10%.
Work on `CC(C)=CCn1ncc(-c2ccc(S(C)(=O)=O)cc2)c(-c2ccc(F)cc2)c1=O` [Example 24, 2-(3-Methyl-2-butenyl)-4-(4-fluorophenyl)-5-[4-(methylsulfonyl)phenyl]-3(2H)-pyridazinone] yielded an IC50 ([2]; read-out: U937 IC50 (parenthetical value)) of 190 nM, a melting point of 169 to 172 °C and an inhibition at 10 µM [4] of 0%. The inhibition at 100 µM [4] was 60%.
For `NS(=O)(=O)c1ccc(-c2cnn(CC=C(Cl)Cl)c(=O)c2-c2ccc(F)cc2)cc1` [Example 119, 2-(3,3-Dichloro-2-2-propenyl)-4-(4-fluorophenyl)-5-[4-(aminosulfonyl)phenyl)-3(2H)-pyridazinone], the IC50 [1] was 1 nM, the inhibition in vivo at 10 mg/kg [5] was 27% and the melting point was 184 to 185 °C. For the same molecule, the inhibition in vivo at 3 mg/kg [6] was 76%, the inhibition in vivo at 10 mg/kg [7] was 82% and the IC50 [8] was 76 nM. The IC50 [3] was 27 nM and the IC50 [4] was 178 nM.
Molecule `CS(=O)(=O)c1ccc(-c2cnn(-c3ccc(F)c(Cl)c3)c(=O)c2-c2ccc(F)cc2)cc1` [Example 187, 2-(3-Chloro-4-fluorophenyl)-4-(4-fluorophenyl)-5-[4-(methylsulfonyl)phenyl]-3(2H)-pyridazinone] has an IC50 [1] of 15 nM, an inhibition in vivo at 10 mg/kg [5] of 28% and a melting point of 155 to 157 °C. It also gave an inhibition in vivo at 3 mg/kg [6] of 30%, an inhibition in vivo at 10 mg/kg [7] of 51% and an IC50 [8] of 12600 nM. It also gave an IC50 [3] of 94 nM and an inhibition at 100 µM [4] of 2%.
Molecule `CS(=O)(=O)c1ccc(-c2cnn(-c3ccc(Cl)c(F)c3)c(=O)c2-c2ccc(F)cc2)cc1` [Example 190] has an IC50 [1] of 30 nM, an inhibition in vivo at 10 mg/kg [5] of 28% and a melting point of 102 to 110 °C. It also gave an inhibition in vivo at 3 mg/kg [6] of 71%, an inhibition in vivo at 10 mg/kg [7] of 60% and an IC50 [8] of 9960 nM. For the same molecule, the IC50 [3] was 134 nM and the IC50 [4] was 1880 nM.
Molecule `CC(C)CCOc1c(-c2ccc(S(C)(=O)=O)cc2)cnn(-c2ccc(F)cc2)c1=O` [Example 375, 2-(4-Fluorophenyl)-4-(3-methylbutoxy)-5-[4-(methylsulfonyl)phenyl]-3(2H)-pyridazinone] has an IC50 [1] of 89 nM, an inhibition in vivo at 10 mg/kg [5] of 47% and a melting point of 117 to 120 °C. For the same molecule, the inhibition in vivo at 3 mg/kg [6] was 77.5%, the ED50 [6] was 0.57 mg/kg and the half-life [9] was 2.9 h. The AUC [9] was 1.8 µM·h, the concentration at 14 day [9] was 0 µM and the IC50 [8] was 2040 nM. For the same molecule, the IC50 [3] was 180 nM, the inhibition at 10 µM [4] was 31% and the inhibition at 100 µM [4] was 46%.
Work on `NS(=O)(=O)c1ccc(-c2cnn(-c3ccc(F)c(F)c3)c(=O)c2-c2ccc(F)cc2)cc1` [Example 400] yielded an IC50 [1] of 26 nM, an inhibition in vivo at 10 mg/kg [5] of 41% and a melting point of 177 to 181 °C. The inhibition in vivo at 3 mg/kg [6] was 82.5%, the inhibition in vivo at 10 mg/kg [7] was 65% and the IC50 [8] was 300 nM. It also gave an IC50 [3] of 142 nM and an inhibition at 100 µM [4] of 27%.
With `CC(C)(O)CCOc1c(-c2ccc(S(C)(=O)=O)cc2)cnn(-c2ccc(F)cc2)c1=O` [Example 451, 2-(4-Fluorophenyl)-4-(3-hydroxy-3-methyl-1-butoxy)-5-[4-(methylsulfonyl)phenyl]-3(2H)-pyridazinone] the IC50 [1] was 150 nM, the “CPE ED30” value ([5]; oral) was “ED30 = 0.82” and the melting point was 133 to 134 °C. For the same molecule, the IC50 (Human whole blood Cox-1) was 29100 nM, the inhibition in vivo at 3 mg/kg [6] was 80.5% and the ED50 [6] was 0.7 mg/kg. For the same molecule, the half-life [9] was 5.2 h, the AUC [9] was 69 µM·h and the concentration at 14 day [9] was 3.43 µM. For the same molecule, the IC50 [8] was 22400 nM, the IC50 [3] was 470 nM and the inhibition at 100 µM [4] was 10%. The IC50 (Human whole blood Cox-2) was 470 nM.
In the case of `CC(C)(O)CCOc1c(-c2ccc(S(C)(=O)=O)cc2)cnn(-c2ccc(F)c(F)c2)c1=O` [Example 471, 2-(3,4-Difluorophenyl)-4-(3-hydroxy-3-methyl-1-butoxy)-5-[4-(methylsulfonyl)phenyl]-3(2H)-pyridazinone], the IC50 [1] is reported as 40 nM, the inhibition in vivo at 10 mg/kg [5] is reported as 41% and the melting point is reported as 131 to 133 °C. The inhibition at 30 µM (Human whole blood Cox-1; 30 micromolar) was 55.5%, the ED50 [6] was 0.9 mg/kg and the IC50 [8] was 320 nM. The IC50 [3] was 490 nM, the IC50 [4] was 3680 nM and the inhibition at 0.03 µM (Human whole blood Cox-2; 0.03 micromolar) was 85%.
